Measurements taken from patent publication US20250235543A1, “MODIFIED PROTEINS AND PROTEIN DEGRADERS” (Cullgen (Shanghai), Inc., priority 2021, published 2025).
Like-named read-outs stand apart in the source and are kept apart here. Each block holds one compound with its values, some of them ahead of it.

Tests used:
[1] = test system: cyclin D1; assay: Cyclin D1 percentage degradation in Calu-1 cells (immunoblotting); type: cell-based; settings: 200 nM, 16 hours
Method in brief: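 Cells were rinsed once in cold PBS and lysed in cold RIPA buffer containing protease and phosphatase inhibitors, with gentle agitation at 4° C. for 30 min. Lysates were spun at 13,000 rpm for 10 min at 4° C., protein was measured by BCA, and samples were boiled in Laemmli buffer at 99° C. for 5 min before SDS-PAGE immunoblotting.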

[2] = molecular target: T1, CDK4 (Homo sapiens, UniProt P11802); assay: CDK4 percentage degradation in Calu-1 cells (immunoblotting); type: cell-based; settings: read-out: CDK4 Degradation (200 nM)
T1 construct: endogenous in cells; host or cells: Calu-1
T1 sequence (P11802 2-303 limits assumed): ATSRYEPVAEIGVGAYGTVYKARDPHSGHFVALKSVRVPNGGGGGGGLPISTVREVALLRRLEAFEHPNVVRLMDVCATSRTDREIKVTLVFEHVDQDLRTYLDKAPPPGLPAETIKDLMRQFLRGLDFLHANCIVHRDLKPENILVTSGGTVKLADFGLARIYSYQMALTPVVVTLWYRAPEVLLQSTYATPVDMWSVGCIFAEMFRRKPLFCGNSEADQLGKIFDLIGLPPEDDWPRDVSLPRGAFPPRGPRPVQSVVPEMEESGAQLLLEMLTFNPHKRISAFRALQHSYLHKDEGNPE
T1 sequence (P24385 whole entry partner): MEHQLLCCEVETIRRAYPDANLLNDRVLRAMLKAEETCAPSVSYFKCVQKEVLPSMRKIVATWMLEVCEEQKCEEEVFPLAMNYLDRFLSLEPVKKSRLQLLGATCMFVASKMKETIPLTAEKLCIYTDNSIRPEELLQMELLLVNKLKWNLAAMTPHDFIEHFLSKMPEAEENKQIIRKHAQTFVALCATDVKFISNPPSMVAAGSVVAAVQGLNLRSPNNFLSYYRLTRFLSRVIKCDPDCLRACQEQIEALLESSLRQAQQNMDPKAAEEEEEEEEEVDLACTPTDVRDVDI
T1 sequence (Q16531 2-1140 limits assumed, further chain): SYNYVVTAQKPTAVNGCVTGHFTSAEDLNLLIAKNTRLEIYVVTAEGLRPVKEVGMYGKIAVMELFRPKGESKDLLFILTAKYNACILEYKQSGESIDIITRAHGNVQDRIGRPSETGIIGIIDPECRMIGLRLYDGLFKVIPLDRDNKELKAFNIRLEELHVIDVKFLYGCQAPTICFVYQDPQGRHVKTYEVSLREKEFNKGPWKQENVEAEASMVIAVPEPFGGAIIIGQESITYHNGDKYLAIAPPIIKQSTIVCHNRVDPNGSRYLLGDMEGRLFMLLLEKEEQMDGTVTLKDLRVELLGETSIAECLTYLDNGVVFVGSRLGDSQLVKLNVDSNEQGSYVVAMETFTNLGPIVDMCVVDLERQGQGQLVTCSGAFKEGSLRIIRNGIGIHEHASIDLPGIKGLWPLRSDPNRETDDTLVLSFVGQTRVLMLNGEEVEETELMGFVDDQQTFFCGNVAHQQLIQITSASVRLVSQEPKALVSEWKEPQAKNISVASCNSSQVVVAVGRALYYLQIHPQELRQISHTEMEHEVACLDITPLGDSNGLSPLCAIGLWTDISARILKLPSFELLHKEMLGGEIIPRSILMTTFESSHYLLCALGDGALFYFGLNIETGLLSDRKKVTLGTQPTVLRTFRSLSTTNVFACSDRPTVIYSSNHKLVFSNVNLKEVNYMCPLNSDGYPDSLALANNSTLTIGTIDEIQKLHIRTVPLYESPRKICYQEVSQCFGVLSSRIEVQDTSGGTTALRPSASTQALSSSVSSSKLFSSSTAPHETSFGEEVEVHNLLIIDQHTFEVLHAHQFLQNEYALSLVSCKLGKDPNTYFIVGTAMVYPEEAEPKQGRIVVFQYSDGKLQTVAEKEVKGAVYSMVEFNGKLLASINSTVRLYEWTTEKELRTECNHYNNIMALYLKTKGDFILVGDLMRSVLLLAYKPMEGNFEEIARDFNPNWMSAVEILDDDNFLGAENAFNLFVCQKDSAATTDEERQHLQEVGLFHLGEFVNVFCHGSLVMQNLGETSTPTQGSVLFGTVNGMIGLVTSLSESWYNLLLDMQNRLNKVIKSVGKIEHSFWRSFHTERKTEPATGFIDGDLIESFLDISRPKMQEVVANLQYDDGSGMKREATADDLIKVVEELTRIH
Method in brief: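 Cultured cells were rinsed once in cold PBS and lysed in cold RIPA buffer containing protease and phosphatase inhibitors, with gentle agitation at 4° C. for 30 min. Lysates were centrifuged at 13,000 rpm for 10 min at 4° C., and protein was quantified by BCA. Samples were then separated by SDS-PAGE, detected with ECL, and the CDK4 bands quantified in Image Lab.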

SMILES: CC(=O)c1c(C)c2cnc(Nc3ccc(N4CCN(C(=O)CCOCCOCCOCCNc5ccc(C)c(C(=O)Nc6nc(C)c(C)s6)c5)CC4)cn3)nc2n(C2CCCC2)c1=O [CPD-111, 5-((2-(2-(2-(3-(4-(6-((6-Acetyl-8-cyclopentyl-5-methyl-7-oxo-7,8-dihydropyrido[2,3-d]pyrimidin-2-yl)amino)pyridin-3-yl)piperazin-1-yl)-3-oxopropoxy)ethoxy)ethoxy)ethyl)amino)-N-(4,5-dimethylthiazol-2-yl)-2-methylbenzamide]
CyclinD1 Degradation (200 nM) [1]: D (protein percentage degradation <30%)
inhibition at 0.2 µM ([2]; Calu-1, 16 h): < 30%

SMILES: CC(=O)c1c(C)c2cnc(Nc3ccc(N4CCN(C(=O)CCNc5cccc(C(=O)Nc6nc(C)c(C)s6)c5C)CC4)cn3)nc2n(C2CCCC2)c1=O [CPD-112, 3-((3-(4-(6-((6-Acetyl-8-cyclopentyl-5-methyl-7-oxo-7,8-dihydropyrido[2,3-d]pyrimidin-2-yl)amino)pyridin-3-yl)piperazin-1-yl)-3-oxopropyl)amino)-N-(4,5-dimethylthiazol-2-yl)-2-methylbenzamide]
CyclinD1 Degradation (200 nM) [1]: D (protein percentage degradation <30%)
inhibition at 0.2 µM ([2]; Calu-1, 16 h): < 30%

inhibition at 0.2 µM ([2]; Calu-1 cells, 200 nM, 16 hours): 50 to 80%
SMILES: CC(=O)c1c(C)c2cnc(Nc3ccc(N4CCN(CC(=O)NCCCCCCCCC(=O)Nc5ccccc5C(=O)Nc5nc(C)c(C)s5)CC4)cn3)nc2n(C2CCCC2)c1=O [CPD-113, 2-(9-(2-(4-(6-((6-Acetyl-8-cyclopentyl-5-methyl-7-oxo-7,8-dihydropyrido[2,3-d]pyrimidin-2-yl)amino)pyridin-3-yl)piperazin-1-yl)acetamido)nonanamido)-N-(4,5-dimethylthiazol-2-yl)benzamide]
CyclinD1 Degradation (200 nM) [1]: A (protein percentage degradation >=80%)

inhibition at 0.2 µM ([2]; Calu-1 cells, 200 nM, 16 hours): < 30%
SMILES: CC(=O)c1c(C)c2cnc(Nc3ccc(N4CCN(CC(=O)NCCCCCNc5ccc(C)c(C(=O)Nc6nc(C)c(C)s6)c5)CC4)cn3)nc2n(C2CCCC2)c1=O [CPD-116, 5-((5-(2-(4-(6-((6-Acetyl-8-cyclopentyl-5-methyl-7-oxo-7,8-dihydropyrido[2,3-d]pyrimidin-2-yl)amino)pyridin-3-yl)piperazin-1-yl)acetamido)pentyl)amino)-N-(4,5-dimethylthiazol-2-yl)-2-methylbenzamide]
CyclinD1 Degradation (200 nM) [1]: D (protein percentage degradation <30%)

inhibition at 0.2 µM ([2]; Calu-1 cells, 200 nM, 16 hours): 30 to 50%
SMILES: CC(=O)c1c(C)c2cnc(Nc3ccc(N4CCN(CC(=O)NCCCCCCCNc5ccc(C)c(C(=O)Nc6nc(C)c(C)s6)c5)CC4)cn3)nc2n(C2CCCC2)c1=O [CPD-117, 5-((7-(2-(4-(6-((6-Acetyl-8-cyclopentyl-5-methyl-7-oxo-7,8-dihydropyrido[2,3-d]pyrimidin-2-yl)amino)pyridin-3-yl)piperazin-1-yl)acetamido)heptyl)amino)-N-(4,5-dimethylthiazol-2-yl)-2-methylbenzamide]
CyclinD1 Degradation (200 nM) [1]: C (protein percentage degradation <50%, and >=30%)

inhibition at 0.2 µM ([2]; Calu-1 cells, 200 nM, 16 hours): < 30%
SMILES: CC(=O)c1c(C)c2cnc(Nc3ccc(N4CCN(CC(=O)NCCOCCOCCOCCOCCNc5ccc(C)c(C(=O)Nc6nc(C)c(C)s6)c5)CC4)cn3)nc2n(C2CCCC2)c1=O [CPD-118, 5-((1-(4-(6-((6-Acetyl-8-cyclopentyl-5-methyl-7-oxo-7,8-dihydropyrido[2,3-d]pyrimidin-2-yl)amino)pyridin-3-yl)piperazin-1-yl)-2-oxo-6,9,12,15-tetraoxa-3-azaheptadecan-17-yl)amino)-N-(4,5-dimethylthiazol-2-yl)-2-methylbenzamide]
CyclinD1 Degradation (200 nM) [1]: D (protein percentage degradation <30%)

SMILES: CC(=O)c1c(C)c2cnc(Nc3ccc(N4CCN(C(=O)CCOCCNc5cccc(C(=O)Nc6nc(C)c(C)s6)c5C)CC4)cn3)nc2n(C2CCCC2)c1=O [CPD-120, 3-((2-(3-(4-(6-((6-Acetyl-8-cyclopentyl-5-methyl-7-oxo-7,8-dihydropyrido[2,3-d]pyrimidin-2-yl)amino)pyridin-3-yl)piperazin-1-yl)-3-oxopropoxy)ethyl)amino)-N-(4,5-dimethylthiazol-2-yl)-2-methylbenzamide]
CyclinD1 Degradation (200 nM) [1]: D (protein percentage degradation <30%)
inhibition at 0.2 µM ([2]; Calu-1, 16 h): < 30%

inhibition at 0.2 µM ([2]; Calu-1 cells, 200 nM, 16 hours): 30 to 50%
SMILES: CC(=O)c1c(C)c2cnc(Nc3ccc(N4CCN(C(=O)CCOCCOCCNc5cccc(C(=O)Nc6nc(C)c(C)s6)c5C)CC4)cn3)nc2n(C2CCCC2)c1=O [CPD-121, 3-((2-(2-(3-(4-(6-((6-Acetyl-8-cyclopentyl-5-methyl-7-oxo-7,8-dihydropyrido[2,3-d]pyrimidin-2-yl)amino)pyridin-3-yl)piperazin-1-yl)-3-oxopropoxy)ethoxy)ethyl)amino)-N-(4,5-dimethylthiazol-2-yl)-2-methylbenzamide]
CyclinD1 Degradation (200 nM) [1]: C (protein percentage degradation <50%, and >=30%)

SMILES: CC(=O)c1c(C)c2cnc(Nc3ccc(N4CCN(C(=O)CCOCCOCCOCCNc5cccc(C(=O)Nc6nc(C)c(C)s6)c5C)CC4)cn3)nc2n(C2CCCC2)c1=O [CPD-122, 3-((2-(2-(2-(3-(4-(6-((6-Acetyl-8-cyclopentyl-5-methyl-7-oxo-7,8-dihydropyrido[2,3-d]pyrimidin-2-yl)amino)pyridin-3-yl)piperazin-1-yl)-3-oxopropoxy)ethoxy)ethoxy)ethyl)amino)-N-(4,5-dimethylthiazol-2-yl)-2-methylbenzamide]
CyclinD1 Degradation (200 nM) [1]: A (protein percentage degradation >=80%)
inhibition at 0.2 µM ([2]; Calu-1, 16 h): 50 to 80%

SMILES: CC(=O)c1c(C)c2cnc(Nc3ccc(N4CCN(C(=O)CCOCCOCCOCCOCCNc5cccc(C(=O)Nc6nc(C)c(C)s6)c5C)CC4)cn3)nc2n(C2CCCC2)c1=O [CPD-123, 3-((15-(4-(6-((6-Acetyl-8-cyclopentyl-5-methyl-7-oxo-7,8-dihydropyrido[2,3-d]pyrimidin-2-yl)amino)pyridin-3-yl)piperazin-1-yl)-15-oxo-3,6,9,12-tetraoxapentadecyl)amino)-N-(4,5-dimethylthiazol-2-yl)-2-methylbenzamide]
CyclinD1 Degradation (200 nM) [1]: A (protein percentage degradation >=80%)
inhibition at 0.2 µM ([2]; Calu-1, 16 h): 50 to 80%

SMILES: CC(=O)c1c(C)c2cnc(Nc3ccc(N4CCN(C(=O)CNc5cccc(C(=O)Nc6nc(C)c(C)s6)c5C)CC4)cn3)nc2n(C2CCCC2)c1=O [CPD-124, 3-((2-(4-(6-((6-Acetyl-8-cyclopentyl-5-methyl-7-oxo-7,8-dihydropyrido[2,3-d]pyrimidin-2-yl)amino)pyridin-3-yl)piperazin-1-yl)-2-oxoethyl)amino)-N-(4,5-dimethylthiazol-2-yl)-2-methylbenzamide]
CyclinD1 Degradation (200 nM) [1]: D (protein percentage degradation <30%)
inhibition at 0.2 µM ([2]; Calu-1, 16 h): < 30%

SMILES: CC(=O)c1c(C)c2cnc(Nc3ccc(N4CCN(C(=O)CCCCCCCNc5cccc(C(=O)Nc6nc(C)c(C)s6)c5C)CC4)cn3)nc2n(C2CCCC2)c1=O [CPD-125, 3-((8-(4-(6-((6-Acetyl-8-cyclopentyl-5-methyl-7-oxo-7,8-dihydropyrido[2,3-d]pyrimidin-2-yl)amino)pyridin-3-yl)piperazin-1-yl)-8-oxooctyl)amino)-N-(4,5-dimethylthiazol-2-yl)-2-methylbenzamide]
CyclinD1 Degradation (200 nM) [1]: D (protein percentage degradation <30%)
inhibition at 0.2 µM ([2]; Calu-1, 16 h): < 30%

SMILES: CC(=O)c1c(C)c2cnc(Nc3ccc(N4CCN(C(=O)CCOCCOCCOCCOCCOCCNc5cccc(C(=O)Nc6nc(C)c(C)s6)c5C)CC4)cn3)nc2n(C2CCCC2)c1=O [CPD-126, 3-((18-(4-(6-((6-Acetyl-8-cyclopentyl-5-methyl-7-oxo-7,8-dihydropyrido[2,3-d]pyrimidin-2-yl)amino)pyridin-3-yl)piperazin-1-yl)-18-oxo-3,6,9,12,15-pentaoxaoctadecyl)amino)-N-(4,5-dimethylthiazol-2-yl)-2-methylbenzamide]
CyclinD1 Degradation (200 nM) [1]: B (protein percentage degradation <80%, and >=50%)
inhibition at 0.2 µM ([2]; Calu-1, 16 h): 50 to 80%

SMILES: CC(=O)c1c(C)c2cnc(Nc3ccc(N4CCN(CC(=O)NCCOCCOCCOCCNc5ccc(C)c(C(=O)Nc6nc(C)c(C)s6)c5)CC4)cn3)nc2n(C2CCCC2)c1=O [CPD-127, 5-((1-(4-(6-((6-Acetyl-8-cyclopentyl-5-methyl-7-oxo-7,8-dihydropyrido[2,3-d]pyrimidin-2-yl)amino)pyridin-3-yl)piperazin-1-yl)-2-oxo-6,9,12-trioxa-3-azatetradecan-14-yl)amino)-N-(4,5-dimethylthiazol-2-yl)-2-methylbenzamide]
CyclinD1 Degradation (200 nM) [1]: C (protein percentage degradation <50%, and >=30%)
inhibition at 0.2 µM ([2]; Calu-1, 16 h): 30 to 50%

SMILES: CC(=O)c1c(C)c2cnc(Nc3ccc(N4CCN(C(=O)CCOCCOCCC(=O)Nc5ccccc5C(=O)Nc5nc(C)c(C)s5)CC4)cn3)nc2n(C2CCCC2)c1=O [CPD-128, 2-(3-(2-(3-(4-(6-((6-Acetyl-8-cyclopentyl-5-methyl-7-oxo-7,8-dihydropyrido[2,3-d]pyrimidin-2-yl)amino)pyridin-3-yl)piperazin-1-yl)-3-oxopropoxy)ethoxy)propanamido)-N-(4,5-dimethylthiazol-2-yl)benzamide]
CyclinD1 Degradation (200 nM) [1]: C (protein percentage degradation <50%, and >=30%)
inhibition at 0.2 µM ([2]; Calu-1, 16 h): 50 to 80%

SMILES: CC(=O)c1c(C)c2cnc(Nc3ccc(N4CCN(C(=O)CCCCCNc5ccc(C)c(C(=O)Nc6nc(C)c(C)s6)c5)CC4)cn3)nc2n(C2CCCC2)c1=O [CPD-129, 5-((6-(4-(6-((6-Acetyl-8-cyclopentyl-5-methyl-7-oxo-7,8-dihydropyrido[2,3-d]pyrimidin-2-yl)amino)pyridin-3-yl)piperazin-1-yl)-6-oxohexyl)amino)-N-(4,5-dimethylthiazol-2-yl)-2-methylbenzamide]
CyclinD1 Degradation (200 nM) [1]: D (protein percentage degradation <30%)
inhibition at 0.2 µM ([2]; Calu-1, 16 h): < 30%
